In brackets after ≈: the same amount, converted by molar mass.
Experiments:
Assay in all cases: In vitro antibacterial evaluation: minimum inhibitory concentration (MIC), broth dilution method
Assay type in all cases: cell-based
Enterococcus sp. = tested on: Enterococcus sp.
Procedure, shortened: (§1)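 Susceptibility determined by NCCLS-recommended broth dilution (M7-A2), Muller-Hinton II […]. Concentration span 64-0.06 μg/mL, inoculum 5×10^5 CFU/mL. Isolates include strains resistant to methicillin, penicillin and/or vancomycin.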

Staphylococcus sp. = details: broth dilution, 18 hours at 35° C.
Procedure, shortened: as §1

Streptococcus sp. = tested on: Streptococcus sp.
Procedure, shortened: as §1

Escherichia coli = tested on: Escherichia coli
Procedure, shortened: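 An MIC is reported for each organism as the least concentration giving inhibition, using broth dilution over 64-0.06 μg/mL with a 5×10^5 CFU/mL inoculum.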

[1] = broth dilution, inoculum 5×10^5 CFU/mL, 18 hours at 35° C.

- MIC Enterococcus avium (GC 4558) (Enterococcus sp.; [1]): 4 µg/mL (≈ 2.73 µM)
- MIC Enterococcus faecalis (ATCC 29212) (Enterococcus sp.; [1]): 8 µg/mL (≈ 5.46 µM)
- MIC Enterococcus faecalis (GC 2242) (Enterococcus sp.; [1]): 4 µg/mL (≈ 2.73 µM)
- MIC Enterococcus faecalis (GC 2691) (Enterococcus sp.; [1]): 4 µg/mL (≈ 2.73 µM)
- MIC Enterococcus faecalis (GC 3059) (Enterococcus sp.; [1]): 8 µg/mL (≈ 5.46 µM)
- MIC Enterococcus faecalis (GC 4552) (Enterococcus sp.; [1]): 8 µg/mL (≈ 5.46 µM)
- MIC Enterococcus faecalis (GC 4553) (Enterococcus sp.; [1]): 4 µg/mL (≈ 2.73 µM)
- MIC Enterococcus faecalis (GC 4554) (Enterococcus sp.; [1]): 8 µg/mL (≈ 5.46 µM)
- MIC Enterococcus faecalis (GC 6189) (Enterococcus sp.; [1]): 4 µg/mL (≈ 2.73 µM)
- MIC Enterococcus faecium (GC 2243) (Enterococcus sp.; [1]): 8 µg/mL (≈ 5.46 µM)
- MIC Enterococcus faecium (GC 4556) (Enterococcus sp.; [1]): 4 µg/mL (≈ 2.73 µM)
- MIC Enterococcus faecium (GC 4557) (Enterococcus sp.; [1]): 8 µg/mL (≈ 5.46 µM)
- MIC Enterococcus faecalis (ATCC 29212) (Enterococcus sp.; strain ATCC 29212): 8 µg/mL (≈ 5.46 µM)
- MIC Enterococcus faecalis (GC 2242) (Enterococcus sp.; strain GC 2242): 4 µg/mL (≈ 2.73 µM)
- MIC Enterococcus faecium (GC 2243) (Enterococcus sp.; strain GC 2243): 8 µg/mL (≈ 5.46 µM)
- MIC Enterococcus faecalis (GC 2691) (Enterococcus sp.; strain GC 2691): 4 µg/mL (≈ 2.73 µM)
- MIC Enterococcus faecalis (GC 3059) (Enterococcus sp.; strain GC 3059): 8 µg/mL (≈ 5.46 µM)
- MIC Enterococcus faecalis (GC 4552) (Enterococcus sp.; strain GC 4552): 8 µg/mL (≈ 5.46 µM)
- MIC Enterococcus faecalis (GC 4553) (Enterococcus sp.; strain GC 4553): 4 µg/mL (≈ 2.73 µM)
- MIC Enterococcus faecalis (GC 4554) (Enterococcus sp.; strain GC 4554): 8 µg/mL (≈ 5.46 µM)
- MIC Enterococcus faecium (GC 4556) (Enterococcus sp.; strain GC 4556): 4 µg/mL (≈ 2.73 µM)
- MIC Enterococcus faecium (GC 4557) (Enterococcus sp.; strain GC 4557): 8 µg/mL (≈ 5.46 µM)
- MIC Enterococcus avium (GC 4558) (Enterococcus sp.; strain GC 4558): 4 µg/mL (≈ 2.73 µM)
- MIC Enterococcus faecalis (GC 6189) (Enterococcus sp.; strain GC 6189): 4 µg/mL (≈ 2.73 µM)
- MIC Coagulase Negative Staphylococcus (GC 4547) (Staphylococcus sp.; 5×10^5 CFU/mL): 8 µg/mL (≈ 5.46 µM)
- MIC Coagulase Negative Staphylococcus (GC 4548) (Staphylococcus sp.; 5×10^5 CFU/mL): 1 µg/mL (≈ 0.682 µM)
- MIC Coagulase Negative Staphylococcus (GC 4549) (Staphylococcus sp.; 5×10^5 CFU/mL): 4 µg/mL (≈ 2.73 µM)
- MIC Coagulase Negative Staphylococcus (GC 4551) (Staphylococcus sp.; 5×10^5 CFU/mL): 2 µg/mL (≈ 1.36 µM)
- MIC Coagulase Negative Staphylococcus (GC 6257) (Staphylococcus sp.; 5×10^5 CFU/mL): 2 µg/mL (≈ 1.36 µM)
- MIC Staphylococcus aureus (ATCC 29213) (Staphylococcus sp.; 5×10^5 CFU/mL): 4 µg/mL (≈ 2.73 µM)
- MIC Staphylococcus aureus (GC 1131) (Staphylococcus sp.; 5×10^5 CFU/mL): 4 µg/mL (≈ 2.73 µM)
- MIC Staphylococcus aureus (GC 3051) (Staphylococcus sp.; 5×10^5 CFU/mL): 8 µg/mL (≈ 5.46 µM)
- MIC Staphylococcus aureus (GC 3053) (Staphylococcus sp.; 5×10^5 CFU/mL): 8 µg/mL (≈ 5.46 µM)
- MIC Staphylococcus aureus (GC 4541) (Staphylococcus sp.; 5×10^5 CFU/mL): 4 µg/mL (≈ 2.73 µM)
- MIC Staphylococcus aureus (GC 4542) (Staphylococcus sp.; 5×10^5 CFU/mL): 4 µg/mL (≈ 2.73 µM)
- MIC Staphylococcus aureus (GC 4544) (Staphylococcus sp.; 5×10^5 CFU/mL): 4 µg/mL (≈ 2.73 µM)
- MIC Staphylococcus aureus (GC 4545) (Staphylococcus sp.; 5×10^5 CFU/mL): 4 µg/mL (≈ 2.73 µM)
- MIC Staphylococcus aureus-SMITH (GC 4543) (Staphylococcus sp.; 5×10^5 CFU/mL): 1 µg/mL (≈ 0.682 µM)
- MIC Staphylococcus aureus (ATCC 29213) (Staphylococcus sp.; strain ATCC 29213): 4 µg/mL (≈ 2.73 µM)
- MIC Staphylococcus aureus (GC 1131) (Staphylococcus sp.; strain GC 1131): 4 µg/mL (≈ 2.73 µM)
- MIC Staphylococcus aureus (GC 3051) (Staphylococcus sp.; strain GC 3051): 8 µg/mL (≈ 5.46 µM)
- MIC Staphylococcus aureus (GC 3053) (Staphylococcus sp.; strain GC 3053): 8 µg/mL (≈ 5.46 µM)
- MIC Staphylococcus aureus (GC 4541) (Staphylococcus sp.; strain GC 4541): 4 µg/mL (≈ 2.73 µM)
- MIC Staphylococcus aureus (GC 4542) (Staphylococcus sp.; strain GC 4542): 4 µg/mL (≈ 2.73 µM)
- MIC Staphylococcus aureus-SMITH (GC 4543) (Staphylococcus sp.; strain GC 4543): 1 µg/mL (≈ 0.682 µM)
- MIC Staphylococcus aureus (GC 4544) (Staphylococcus sp.; strain GC 4544): 4 µg/mL (≈ 2.73 µM)
- MIC Staphylococcus aureus (GC 4545) (Staphylococcus sp.; strain GC 4545): 4 µg/mL (≈ 2.73 µM)
- MIC Coagulase Negative Staphylococcus (GC 4547) (Staphylococcus sp.; strain GC 4547): 8 µg/mL (≈ 5.46 µM)
- MIC Coagulase Negative Staphylococcus (GC 4548) (Staphylococcus sp.; strain GC 4548): 1 µg/mL (≈ 0.682 µM)
- MIC Coagulase Negative Staphylococcus (GC 4549) (Staphylococcus sp.; strain GC 4549): 4 µg/mL (≈ 2.73 µM)
- MIC Coagulase Negative Staphylococcus (GC 4551) (Staphylococcus sp.; strain GC 4551): 2 µg/mL (≈ 1.36 µM)
- MIC Coagulase Negative Staphylococcus (GC 6257) (Staphylococcus sp.; strain GC 6257): 2 µg/mL (≈ 1.36 µM)
- MIC Streptococcus agalactiae (GC 4564) (Streptococcus sp.; [1]): <0.5 µg/mL
- MIC Streptococcus pneumoniae (ATCC 6301) (Streptococcus sp.; [1]): <0.5 µg/mL
- MIC Streptococcus pneumoniae (GC 1894) (Streptococcus sp.; [1]): <0.5 µg/mL
- MIC Streptococcus pneumoniae (GC 4565) (Streptococcus sp.; [1]): 1 µg/mL (≈ 0.682 µM)
- MIC Streptococcus pyogenes (GC 4563) (Streptococcus sp.; [1]): <0.5 µg/mL
- MIC Streptococcus pneumoniae (ATCC 6301) (Streptococcus sp.; strain ATCC 6301): <0.5 µg/mL
- MIC Streptococcus pneumoniae (GC 1894) (Streptococcus sp.; strain GC 1894): <0.5 µg/mL
- MIC Streptococcus pyogenes (GC 4563) (Streptococcus sp.; strain GC 4563): <0.5 µg/mL
- MIC Streptococcus agalactiae (GC 4564) (Streptococcus sp.; strain GC 4564): <0.5 µg/mL
- MIC Streptococcus pneumoniae (GC 4565) (Streptococcus sp.; strain GC 4565): 1 µg/mL (≈ 0.682 µM)
- MIC Escherichia coli (ATCC 25922) (Escherichia coli; strain ATCC 25922): >64 µg/mL
- MIC Escherichia coli (GC 4559) (Escherichia coli; strain GC 4559): 64 µg/mL (≈ 43.7 µM)
- MIC Escherichi coli (GC 4560) (Escherichia coli; strain GC 4560): 8 µg/mL (≈ 5.46 µM)
SMILES: CC(c1ccccc1)C1NC(=O)CNC(=O)C(CO)NC(=O)C(C(O)C2CNC(=N)N2C2OC(CO)C(O)C(O)C2O)NC(=O)C(C(O)C2CNC(=N)N2)NC(=O)C(Cc2ccc(OC3OC(CO)C(OC4OC5COC(c6ccc(-c7cccs7)cc6)OC5C(O)C4O)C(O)C3O)cc2)NC1=O (stereo not drawn) [Example 163, Cyclo[glycyl-β-methylphenylalanyl-O-[4-O-[4,6-O-[4-(2-thienyl)benzylidene]hexopyranosyl]-hexopyranosyl]tyrosyl-3-(2-iminoimidazolidin-4-yl)seryl-3-(3-hexopyranosyl-2-iminoimidazolidin-4-yl)serylseryl]]
- MIC Staphylococcus haemolyticus (GC 4546) (Staphylococcus sp.; 5×10^5 CFU/mL): 4 µg/mL (≈ 2.73 µM)
- MIC Staphylococcus haemolyticus (GC 4546) (Staphylococcus sp.; strain GC 4546): 4 µg/mL (≈ 2.73 µM)
